# Data as given in patent publication US9895439B2, “Combined treatment with netrin-1 interfering drug and chemotherapeutic drug” (NETRIS PHARMA, priority 2012, dated 2018).
# Numbered stars: 1 amine (or outer) side, 2 acyl side, 3 side chain; on linkers, the order of the positions; unused ones are H or OH. Bridge positions count the residues as written; N and C are the ends. Square brackets hold non-standard residues; d marks the D form. Peptide text beside a SMILES is read from it. I, II: the chains in the order shown. Actinocin(9to1) = Cc1c2oc3c(C)ccc(C(=O)[*:1])c3nc-2c(C(=O)[*:2])c(N)c1=O; NMeV = CN[C@H](C(=O)O)C(C)C; Sar = CNCC(=O)O
# B1: TRAP-netric^DCC: fifth fibronectin domain of DCC ectodomain fused to IgG1 Fc portion (protein)
# chain: PPVGVQAVALTHDAVRVSWADNSVPKNQKTSEVRLYTVRWRTSFSASAKYKSEDTTSLSYTATGLKPNTMYEFSVMVTKNRRSSTWSMTAHATTYEA
# modifications: left off: a dimerising Fc or GST
# notes: fifth fibronectin domain of DCC ectodomain fused to IgG1 Fc portion
# Experiments:
# [1] = test system: DCC expression in panel of 15 cancer cell lines; details: drug at IC10, IC30, IC50 or ICMAX, 24 hours
# [2] = test system: Netrin-1 gene expression in A549 lung cancer cell line; assay: Netrin-1 gene expression by quantitative RT-PCR in A549 cells; type: cell-based, human; details: 24 hours
# [3] = test system: UNC5B expression in panel of 15 cancer cell lines; details: drug at IC10, IC30, IC50 or ICMAX, 24 hours
# [4] = test system: UNC5B gene expression in A549 cells; assay: Netrin-1 receptor gene expression in A549 cells: UNC5B; type: cell-based, human
# [5] = test system: Netrin-1 protein in A549 cells; assay: Netrin-1 protein levels by western blotting in A549 cells; type: cell-based, human; details: A549, 1 μM and 2 μM Doxorubicin, 48 hours, normalized to β-actin
# Procedure: For immunoblot analysis, cells were lysed by sonication in modified RIPA buffer (50 mM Tris-HCl, pH7.5, 150 mM NaCl, 1% NP-40, 0.5% sodium deoxycholate, 0.1% SDS, 1 mM EDTA, protease inhibitor cocktail and 5 mM DTT) and incubated 1 h at 4° C. Cellular debris were pelletted by centrifugation (10.000 g 15′ at 4° C.) and protein extracts (200 μg per lane) were loaded onto 10% SDS-polyacrylamide gels and blotted onto PVDF sheets (Millipore Corporation, Billerica, Mass., U.S.A.). Filters were blocked with 10% non-fat dried milk and 5% BSA in PBS/0.1% Tween 20 (PBS-T) over-night and then incubated for 2 h with rabbit polyclonal α-netrin-1 (dilution 1:500, clone H104, Santa Cruz Biotechnology, Santa Cruz, Calif., USA) and mouse monoclonal β-actin (Santa Cruz Biotechnologies) antibodies. After three washes with PBS-T, filters were incubated with the appropriate HRP-conjugated secondary antibody (1:10000, Jackson ImmunoResearch, Suffolk, UK) for 1 h. Detection was performed using West Dura Chemiluminescence System (Pierce, Rockford, Ill., U.S.A.).
# [6] = test system: UNC5D expression in panel of 15 cancer cell lines; details: drug at IC10, IC30, IC50 or ICMAX, 24 hours
# A549 cells [7] = assay: Caspase-3 activity assay in A549 cells; type: cell-based, human; details: A549 transfected with scramble siRNA (siCTRL), Doxorubicin 24 hours
# Procedure: (§1) FIGS. 13-14: Netrin-1 silencing triggers apoptosis in combination with Doxorubicin treatment. A549 cells were transfected as in (FIGS. 10-12), and treated with the indicated Doxorubicin concentrations for 24 hours. […] DoxoR, Doxorubicin.
# [8] = test system: DCC gene expression in A549 cells; assay: Netrin-1 receptor gene expression in A549 cells: DCC; type: cell-based, human; details: A549 cells following Doxorubicin treatment
# [9] = test system: UNC5D gene expression in A549 cells; assay: Netrin-1 receptor gene expression in A549 cells: UNC5D; type: cell-based, human; details: A549 cells following Doxorubicin treatment
# [10] = test system: A549 cells engrafted in nude mice; assay: A549 xenograft in athymic nude mice, tumor growth; type: in vivo; details: i.p. twice a week for two weeks, TRAP-netrin^UNC5A 20 mg/kg, Doxorubicin 2 mg/kg, alone or combined
# Procedure: FIG. 22: Netrin-1 interfering potentiates Doxorubicin anti-cancer effect in a preclinical animal model. A549 cells were engrafted in seven-weeks old female athymic nude mice. Once tumors reached a 100 mm^3-volume, mice were treated intraperitoneally with TRAP-netrin^UNC5A (20 mg/kg), Doxorubicin (2 mg/kg) or with a combination of both drugs, twice a week for two weeks. As a control, mice were injected with PBS. Histogram represents tumor volume growth for each group as a function of days post-xenografts.
# Seven-week-old (20-22 g body weight) female athymic nu/nu mice were obtained from Charles River animal facility. The mice were housed in sterilized filter-topped cages and maintained in a pathogen-free animal facility. A549 cells were implanted by s.c. injection of 10^7 cells in 200 μL of PBS into the right flank of the mice. Once tumors were established (V≈100 mm^3), mice were treated with netrin-1 interfering drugs and/or cytotoxic drugs for two weeks. Tumor sizes were measured with a caliper. The tumor volume was calculated with the formula v=0.5*(length*width^2). At the end of the treatment, tumors were harvested, weighted and were embedded in 7.5% gelatin—0.12M sucrose and sectioned into 20 μm slices.
# We then assessed whether the in vitro effect seen above could be translated in vivo in a therapeutic perspective. […]
# [11] = test system: UNC5A gene expression in A549 cells; assay: Netrin-1 receptor gene expression in A549 cells: UNC5A; type: cell-based, human; details: A549 cells following Doxorubicin treatment
# [12] = test system: UNC5C gene expression in A549 cells; assay: Netrin-1 receptor gene expression in A549 cells: UNC5C; type: cell-based, human; details: A549 cells following Doxorubicin treatment
# A549 cells [13] = assay: Cell death rate by ToxiLight bioluminescent cytotoxicity assay in A549 cells; details: 48 hours; for Potentiation of Doxorubicin-induced cell death (toxilight): A549, 2 μg/mL fusion protein plus Doxorubicin
# Procedure: Cell death rate (FIG. 10), measured by toxilight kit as described in materials and methods section, and cell survival (FIG. 11), was evaluated 48 hours after treatment. Results were normalized to control, untreated cells.
# A549 cells were transfected with scramble siRNA (siCTRL), netrin-1-specific siRNA (siNet), UNC5B-specific siRNA (siUnc5B) and with a combination of netrin-1 and UNC5B-targeting siRNA. 24 hours after transfection, cells were treated with the indicated Doxorubicin concentrations for 48 hours, and cell death rate was measured by toxilight and normalized to control, untreated cells.
# FIGS. 16-17: A549 cells were treated for 48 hours with the indicated Doxorubicin concentrations in presence or not of 2 μg/mL TRAP-netrin^DCC (FIG. 16) and TRAP-netrin^Unc5A (FIG. 17). […] Results were normalized to untreated cells. *, P<0.05; **, P<0.01; ***, P<0.001.
# Cell death was evaluated by means of different methods. For total cell death assays, 5*10^3 cells per well were grown in 96-well plate in serum-poor medium and treated with Doxorubicin. 48 hours later, cell death was evaluated using the bioluminescent cytotoxicity assay ToxiLight (Lonza, Basel, Switzerland), according to manufacturer's instruction. […] Cell survival was measured by MTS assay (CellTiter 96 AQueous One Solution Cell Proliferation Assay, Promega) in 96-well plates. MTS assay was performed according to the manufacturer's procedures on 3*10^3 cells grown in serum-poor medium for 16 hours and then treated for 48 hours with the indicated Doxorubicin concentrations in serum-free medium.
# [14] = test system: Netrin-1 gene expression in H460 lung cancer cell line; assay: Netrin-1 gene expression by quantitative RT-PCR in H460 cells; details: H460, 2 μM Doxorubicin, 24 hours, normalized with GAPDH, compared to not-treated cells
# A549 cells [15] = assay: DNA fragmentation in A549 cells; type: cell-based, human; details: A549 transfected with scramble siRNA (siCTRL), Doxorubicin 24 hours
# Procedure: as §1
# [16] = test system: netrin-1 expressing tumor cells; assay: Death of netrin-1 expressing tumor cells in vitro (not shown); type: cell-based; details: data not shown
# A549 cells [17] = assay: Cell survival by MTS assay in A549 cells; details: 48 hours
# Procedure: FIGS. 18-19: A549 cells were treated with PBS or 2 μg/mL TRAP-netrin^Unc5A, in presence of the indicated concentrations of 5-Fluorouracil (5-FU, FIG. 18) or Cisplatin (FIG. 19). 48 hours after co-treatment, cell survival was measured by MTS and normalized to untreated cells. *, P<0.05; **, P<0.01; ***, P<0.001.
# Cell survival was measured by MTS assay (CellTiter 96 AQueous One Solution Cell Proliferation Assay, Promega) in 96-well plates.
# MiaPacA cells = assay: Cell survival by MTS assay in MiaPacA cells; type: cell-based, human; details: 48 hours
molecule,measurement,setting,value
"O=c1[nH]cc(F)c(=O)[nH]1 [5FU, 5-Fluorouracil]",cell lines with up-regulation of DCC,[1],43%
"Cc1c2oc3c(C)ccc(C(=O)N[C@@H]4C(=O)N[C@H](C(C)C)C(=O)N5CCC[C@H]5C(=O)N(C)CC(=O)N(C)[C@@H](C(C)C)C(=O)O[C@@H]4C)c3nc-2c(C(=O)N[C@@H]2C(=O)N[C@H](C(C)C)C(=O)N3CCC[C@H]3C(=O)N(C)CC(=O)N(C)[C@@H](C(C)C)C(=O)O[C@@H]2C)c(N)c1=O [Actinomycin D] (I: T[dV]P[Sar][NMeV] / II: T[dV]P[Sar][NMeV]; ester I:1-I:C, II:1-II:C; linker I:N-II:N via Actinocin(9to1))",Effect on Doxorubicin-mediated netrin-1 up-regulation,"[2]; A549, 2 μM Doxorubicin plus Actinomycin D 100 μg/ml",fully prevents
N.N.[Cl][Pt][Cl] [Cisplatin],cell lines with up-regulation of DCC,[1],36%
COc1cccc2c1C(=O)c1c(O)c3c(c(O)c1C2=O)C[C@@](O)(C(=O)CO)C[C@@H]3O[C@H]1C[C@H](N)[C@H](O)[C@H](C)O1 [Doxorubicin],cell lines with up-regulation of UNC5B,[3],80%
same,UNC5B gene expression,"[4]; A549 cells following Doxorubicin treatment, result in words",significantly up-regulated
same,UNC5B receptor level increase,[4]; A549 cells treated with Doxorubicin,44 folds
same,Netrin-1 protein levels,[5],strongly accumulated
same,cell lines with up-regulation of UNC5D,[6],67%
same,cell lines with up-regulation of DCC,[1],87%
same,Apoptosis (active caspase-3),A549 cells [7],failed to induce apoptosis
same,DCC gene expression,[8],significantly up-regulated
same,UNC5D gene expression,[9],non-significant variations
same,netrin-1 mRNA level increase,"[2]; A549, 2 μM Doxorubicin, normalized with GAPDH, compared to not-treated cells",430 fold
same,Tumor growth inhibition,[10],detectable but weak tumor growth inhibiting effect
same,UNC5A gene expression,[11],significantly up-regulated
same,UNC5C gene expression,[12],non-significant variations
same,Cell death rate and cell survival under Doxorubicin,"A549 cells [13]; A549 scramble siRNA-transfected cells, increasing Doxorubicin concentrations",general resistance
same,netrin-1 mRNA level increase,[14],300 fold
same,Apoptosis (DNA fragmentation),A549 cells [15],failed to induce apoptosis
"CC(=O)O[C@H]1C(=O)[C@@]2(C)[C@H]([C@H](OC(=O)c3ccccc3)[C@]3(O)C[C@H](OC(=O)[C@H](O)[C@@H](NC(=O)c4ccccc4)c4ccccc4)C(C)=C1C3(C)C)[C@]1(OC(C)=O)CO[C@@H]1C[C@@H]2O [Taxol, paclitaxel]",cell lines with up-regulation of DCC,[1],53%
TRAP-netrin^UNC5A: two immunoglobin (Ig1-Ig2) domains of the UNC5A ectodomain fused to IgG1 Fc portion; SEQ ID NO: 1,Death of netrin-1 expressing tumor cells in vitro,[16],trigger death of netrin-1 expressing tumor cells
same,"Potentiating effect on cell death, co-treatment with 5FU (cell survival by MTS)","A549 cells [17]; A549, 2 μg/mL fusion protein plus 5FU",Comparable potentiating effect on cell death
same,"Potentiating effect on cell death, co-treatment with Cisplatin (cell survival by MTS)","A549 cells [17]; A549, 2 μg/mL fusion protein plus Cisplatin",Comparable potentiating effect on cell death
same,"Cell death, co-treatment with 5FU (cell survival by MTS)",MiaPacA cells; 2 μg/mL fusion protein plus 5FU,potentiated cell death
same,"Cell death, co-treatment with Doxorubicin (cell survival by MTS)",MiaPacA cells; 2 μg/mL fusion protein plus Doxorubicin,potentiated cell death
same,Tumor growth inhibition,[10],detectable but weak tumor growth inhibiting effect
same,Potentiation of Doxorubicin-induced cell death (toxilight),A549 cells [13],strongly potentiate
B1,Death of netrin-1 expressing tumor cells in vitro,[16],trigger death of netrin-1 expressing tumor cells
same,Potentiation of Doxorubicin-induced cell death (toxilight),A549 cells [13],strongly potentiate
